Assay results as given in patent publication US11987588B2, “Modulators of the beta-3 adrenergic receptor useful for the treatment or prevention of heart failure and disorders related thereto” (Arena Pharmaceuticals, Inc., priority 2017, dated 2024).

biological target: Beta-3 Adrenergic Receptor (Homo sapiens (Human), UniProt P13945); assay: Homogeneous Time-Resolved Fluorescence (HTRF) cAMP antagonist assay, IC50 determination; type: cell-based; conditions: CHO-K1 cells stably expressing recombinant receptor, isoproterenol at EC90
In short: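 Antagonist mode: isoproterenol at its predetermined EC90 added after compound to recombinant CHO-K1 cells in IBMX-containing PBS, 1 h, room temperature. Compounds tested as 5-fold, 10-point dilutions, top final typically 10 or 100 μM. HTRF signal converted to cAMP via standard curve, giving IC50.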

Beta-3 Adrenergic Receptor, sequence (P13945 whole entry, species assumed): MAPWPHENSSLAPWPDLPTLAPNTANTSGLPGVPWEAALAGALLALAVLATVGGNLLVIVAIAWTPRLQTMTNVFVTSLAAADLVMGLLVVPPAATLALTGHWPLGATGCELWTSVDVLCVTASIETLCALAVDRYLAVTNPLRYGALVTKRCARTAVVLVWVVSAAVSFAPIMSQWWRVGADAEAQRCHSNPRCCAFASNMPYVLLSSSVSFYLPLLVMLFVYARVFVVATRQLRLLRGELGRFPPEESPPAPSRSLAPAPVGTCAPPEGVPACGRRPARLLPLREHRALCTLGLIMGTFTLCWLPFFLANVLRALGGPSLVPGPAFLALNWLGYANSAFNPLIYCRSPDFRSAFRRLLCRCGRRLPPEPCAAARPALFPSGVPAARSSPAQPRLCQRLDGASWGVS

IC50 [nM] | Structure (SMILES)
285 | CCN(C(C)C)S(=O)(=O)c1cccc(OC[C@@H](O)CNC2COC3(CCN(S(=O)(=O)c4ccc5ccccc5c4)CC3)C2)c1 (stereo partly drawn) [Compound 7, N-ethyl-3-((2S)-2-hydroxy-3-(8-(naphthalen-2-ylsulfonyl)-1-oxa-8-azaspiro[4.5]decan-3-ylamino)propoxy)-N-isopropylbenzenesulfonamide]
17.9 | CNS(=O)(=O)c1cccc(OC[C@@H](O)CN[C@@H]2COC3(CCN(S(=O)(=O)c4cccc(-c5ccc(CNC(C)C)cc5)c4)CC3)C2)c1 [Compound 359, 3-((S)-2-hydroxy-3-((S)-8-(4′-((isopropylamino)methyl)biphenyl-3-ylsulfonyl)-1-oxa-8-azaspiro[4.5]decan-3-ylamino)propoxy)-N-methylbenzenesulfonamide]
20.5 | CCOc1ccc(-c2ccc(CNC(C)C)cc2)cc1S(=O)(=O)N1CCC2(CC1)C[C@H](NC[C@H](O)COc1cccc(S(=O)(=O)NC)c1)CO2 [Compound 438, 3-((S)-3-((S)-8-(4-ethoxy-4′-((isopropylamino)methyl)biphenyl-3-ylsulfonyl)-1-oxa-8-azaspiro[4.5]decan-3-ylamino)-2-hydroxypropoxy)-N-methylbenzenesulfonamide]
107 | CNS(=O)(=O)c1cccc(OC[C@@H](O)CN[C@H]2COC3(CCN(S(=O)(=O)c4cnc5c(c4)N(CCOCc4ccccc4)CCO5)CC3)C2)c1 [Compound 462, 3-((S)-3-((R)-8-(1-(2-(benzyloxy)ethyl)-2,3-dihydro-1H-pyrido[2,3-b][1,4]oxazin-7-ylsulfonyl)-1-oxa-8-azaspiro[4.5]decan-3-ylamino)-2-hydroxypropoxy)-N-methylbenzenesulfonamide]
6.97 | CNS(=O)(=O)c1cccc(OC[C@@H](O)CN[C@H]2COC3(CCN(S(=O)(=O)c4cnc5ccn(C)c5c4)CC3)C2)c1 [Compound 526, 3-((S)-2-hydroxy-3-((R)-8-(1-methyl-1H-pyrrolo[3,2-b]pyridin-6-ylsulfonyl)-1-oxa-8-azaspiro[4.5]decan-3-ylamino)propoxy)-N-methylbenzenesulfonamide]
29 | CNS(=O)(=O)c1cccc(OC[C@@H](O)CNC2COC3(CCN(S(=O)(=O)c4ccc(OC)c5nonc45)CC3)C2)c1 (stereo partly drawn) [Compound 173, 3-((2S)-2-hydroxy-3-(8-(7-methoxybenzo[c][1,2,5]oxadiazol-4-ylsulfonyl)-1-oxa-8-azaspiro[4.5]decan-3-ylamino)propoxy)-N-methylbenzenesulfonamide]
340 | CCCc1cnc(N2CCC3(CC2)C[C@@H](NC[C@H](O)COc2cccc(S(=O)(=O)NC)c2)CO3)nc1 [Compound 579, 3-((S)-2-hydroxy-3-((R)-8-(5-propylpyrimidin-2-yl)-1-oxa-8-azaspiro[4.5]decan-3-ylamino)propoxy)-N-methylbenzenesulfonamide]
13 | CCOc1ccc(-c2ccc(CN)cc2)cc1S(=O)(=O)N1CCC2(CC1)CC(NC[C@H](O)COc1cccc(S(=O)(=O)NC)c1)CO2 (stereo partly drawn) [Compound 404, 3-((2S)-3-(8-(4′-(aminomethyl)-4-ethoxybiphenyl-3-ylsulfonyl)-1-oxa-8-azaspiro[4.5]decan-3-ylamino)-2-hydroxypropoxy)-N-methylbenzenesulfonamide]
66.7 | CCn1cc(S(=O)(=O)N2CCC3(CC2)C[C@@H](NC[C@H](O)COc2cccc(S(N)(=O)=O)c2)CO3)c(=O)c2ccc(F)cc21 [Compound 543, 3-((S)-3-((R)-8-(1-ethyl-7-fluoro-4-oxo-1,4-dihydroquinolin-3-ylsulfonyl)-1-oxa-8-azaspiro[4.5]decan-3-ylamino)-2-hydroxypropoxy)benzenesulfonamide]
23.4 | CNS(=O)(=O)c1cccc(OC[C@@H](O)CNC2COC3(CCN(S(=O)(=O)c4ccc(OC)c(F)c4)CC3)C2)c1 (stereo partly drawn) [Compound 195, 3-((2S)-3-(8-(3-fluoro-4-methoxyphenylsulfonyl)-1-oxa-8-azaspiro[4.5]decan-3-ylamino)-2-hydroxypropoxy)-N-methylbenzenesulfonamide]
214 | COCCNS(=O)(=O)c1cccc(OC[C@@H](O)CN[C@H]2COC3(CCN(S(=O)(=O)c4cnc5cc[nH]c5c4)CC3)C2)c1 [Compound 530, 3-((S)-3-((R)-8-(1H-pyrrolo[3,2-b]pyridin-6-ylsulfonyl)-1-oxa-8-azaspiro[4.5]decan-3-ylamino)-2-hydroxypropoxy)-N-(2-methoxyethyl)benzenesulfonamide]
22.2 | CNS(=O)(=O)c1cccc(OC[C@@H](O)CNC2COC3(CCN(S(=O)(=O)c4ccc(F)cc4Cl)CC3)C2)c1 (stereo partly drawn) [Compound 200, 3-((2S)-3-(8-(2-chloro-4-fluorophenylsulfonyl)-1-oxa-8-azaspiro[4.5]decan-3-ylamino)-2-hydroxypropoxy)-N-methylbenzenesulfonamide]
23.5 | CNS(=O)(=O)c1cccc(OC[C@@H](O)CNC2COC3(CCN(S(=O)(=O)c4cccc(-c5sccc5C)c4)CC3)C2)c1 (stereo partly drawn) [Compound 116, 3-((2S)-2-hydroxy-3-(8-(3-(3-methylthiophen-2-yl)phenylsulfonyl)-1-oxa-8-azaspiro[4.5]decan-3-ylamino)propoxy)-N-methylbenzenesulfonamide]
1160 | CN1CCOc2ncc(S(=O)(=O)N3CCC4(CC3)C[C@@H](NC[C@H](O)COc3cccc(S(=O)(=O)N[C@H]5CCCC[C@@H]5O)c3)CO4)cc21 [Compound 431, 3-((S)-2-hydroxy-3-((R)-8-(1-methyl-2,3-dihydro-1H-pyrido[2,3-b][1,4]oxazin-7-ylsulfonyl)-1-oxa-8-azaspiro[4.5]decan-3-ylamino)propoxy)-N-((1S,2S)-2-hydroxycyclohexyl)benzenesulfonamide]
30.1 | CNS(=O)(=O)c1cccc(OC[C@@H](O)CN[C@H]2COC3(CCN(S(=O)(=O)c4cccc(-c5ccc(S(N)(=O)=O)cc5)c4)CC3)C2)c1 [Compound 292, 3′-((R)-3-((S)-2-hydroxy-3-(3-(N-methylsulfamoyl)phenoxy)propylamino)-1-oxa-8-azaspiro[4.5]decan-8-ylsulfonyl)biphenyl-4-sulfonamide]
78.1 | CNS(=O)(=O)c1cccc(OC[C@@H](O)CNC2COC3(CCN(S(=O)(=O)C4CCCCC4)CC3)C2)c1 (stereo partly drawn) [Compound 125, 3-((2S)-3-(8-(cyclohexylsulfonyl)-1-oxa-8-azaspiro[4.5]decan-3-ylamino)-2-hydroxypropoxy)-N-methylbenzenesulfonamide]
239 | CNS(=O)(=O)c1cccc(OC[C@@H](O)CNC2COC3(CCN(S(=O)(=O)c4cccc(-c5cccc(C(=O)O)c5)c4)CC3)C2)c1 (stereo partly drawn) [Compound 112, 3′-(3-((S)-2-hydroxy-3-(3-(N-methylsulfamoyl)phenoxy)propylamino)-1-oxa-8-azaspiro[4.5]decan-8-ylsulfonyl)biphenyl-3-carboxylic acid]
21 | CNS(=O)(=O)c1cccc(OC[C@@H](O)CNC2COC3(CCN(S(=O)(=O)c4ccc(-c5ccc(CN)cc5)cc4)CC3)C2)c1 (stereo partly drawn) [Compound 382, 3-((2S)-3-(8-(4′-(aminomethyl)biphenyl-4-ylsulfonyl)-1-oxa-8-azaspiro[4.5]decan-3-ylamino)-2-hydroxypropoxy)-N-methylbenzenesulfonamide]
1120 | NCCNS(=O)(=O)c1cccc(OC[C@@H](O)CNC2COC3(CCN(S(=O)(=O)c4ccc5ccccc5c4)CC3)C2)c1 (stereo partly drawn) [Compound 91, N-(2-aminoethyl)-3-((2S)-2-hydroxy-3-(8-(naphthalen-2-ylsulfonyl)-1-oxa-8-azaspiro[4.5]decan-3-ylamino)propoxy)benzenesulfonamide]
39 | CNS(=O)(=O)c1cccc(OC[C@@H](O)CNC2COC3(CCN(S(=O)(=O)c4ccc5cc(Cl)ccc5c4)CC3)C2)c1 (stereo partly drawn) [Compound 264, 3-((2S)-3-(8-(6-chloronaphthalen-2-ylsulfonyl)-1-oxa-8-azaspiro[4.5]decan-3-ylamino)-2-hydroxypropoxy)-N-methylbenzenesulfonamide]
36.7 | CNS(=O)(=O)c1cccc(OC[C@@H](O)CNC2COC3(CCN(S(=O)(=O)c4ccc5c(c4)CCO5)CC3)C2)c1 (stereo partly drawn) [Compound 330, 3-((2S)-3-(8-(2,3-dihydrobenzofuran-5-ylsulfonyl)-1-oxa-8-azaspiro[4.5]decan-3-ylamino)-2-hydroxypropoxy)-N-methylbenzenesulfonamide]
131 | CNS(=O)(=O)c1cccc(OC[C@@H](O)CNC2COC3(CCN(S(=O)(=O)CCc4ccncc4)CC3)C2)c1 (stereo partly drawn) [Compound 378, 3-((2S)-2-hydroxy-3-(8-(2-(pyridin-4-yl)ethylsulfonyl)-1-oxa-8-azaspiro[4.5]decan-3-ylamino)propoxy)-N-methylbenzenesulfonamide]
196 | C[C@@H](CO)NS(=O)(=O)c1cccc(OC[C@@H](O)CN[C@H]2COC3(CCN(S(=O)(=O)c4cnc5c(c4)N(C)CCO5)CC3)C2)c1 [Compound 432, 3-((S)-2-hydroxy-3-((R)-8-(1-methyl-2,3-dihydro-1H-pyrido[2,3-b][1,4]oxazin-7-ylsulfonyl)-1-oxa-8-azaspiro[4.5]decan-3-ylamino)propoxy)-N—((S)-1-hydroxypropan-2-yl)benzenesulfonamide]
30.4 | CCOc1ccc(S(=O)(=O)N2CCC3(CC2)CC(NC[C@H](O)COc2cccc(S(=O)(=O)NC)c2)CO3)cn1 (stereo partly drawn) [Compound 445, 3-((2S)-3-(8-(6-ethoxypyridin-3-ylsulfonyl)-1-oxa-8-azaspiro[4.5]decan-3-ylamino)-2-hydroxypropoxy)-N-methylbenzenesulfonamide]
30.3 | CNS(=O)(=O)c1cccc(OC[C@@H](O)CNC2COC3(CCN(S(=O)(=O)c4ccc(OC)nc4)CC3)C2)c1 (stereo partly drawn) [Compound 396, 3-((2S)-2-hydroxy-3-(8-(6-methoxypyridin-3-ylsulfonyl)-1-oxa-8-azaspiro[4.5]decan-3-ylamino)propoxy)-N-methylbenzenesulfonamide]
